≈ marks a conversion by molar mass, not a printed value. Square brackets hold non-standard residues; d marks the D form. Peptide text beside a SMILES is read from it.
What was measured:
[1] = system: A. baumannii ATCC 19606, Acinetobacter spp. ATCC 17903, Acinetobacter spp. ATCC 19004, E. coli BL21, S. aureus, S. typhimurium AroA, P. aeruginosa, P. …; test: Antibacterial spectrum over the serial dilution panel (Table 6); type: cell-based; details: summary of Table 6
Description: Synthetic peptides were tested for their ability to inhibit bacterial growth in liquid culture. The peptides were added at a concentration of between about 5 μM and about 10 μM to individual wells of 96-deep-well dishes that contained liquid growth media freshly inoculated with one of the following bacteria: A. baumannii ATCC Accession No. 19606, Acinetobacter spp. ATCC 17903, Acinetobacter spp. ATCC 19004, Escherichia coli strain BL21, S. aureus, S. typhimurium strain AroA, P. aeruginosa or P. pneumotropica. After 5-6 hours of shaking at 37° C., growth was measured as absorbance at 595 nm. As a control, cultures were grown in the presence of 0.1% acetonitrile (i.e., the concentration present in 10 μM peptide).

A. baumannii = type: cell-based
From the text: Broth dilution methods are e.g., described by Lorian (2007) In: Antibiotics in Laboratory Medicine, Fifth Edition; and In: Clinical and Laboratory Standards Institute, CLSI (formerly NCCLS), In: Methods for Dilution Antimicrobial Susceptibility Tests for Bacteria that Grow Aerobically—Approved Standard—Seventh Edition, CLSI document M7-A7, Villanova, Pa. (NCCLS; January 2006; Vol. 26 No. 2); and In: Clinical and Laboratory Standards Institute, CLSI (formerly NCCLS), Performance Standards for Antimicrobial Susceptibility Testing, Seventeenth Informational Supplement, M100-S17, Vol 27 No. 1 January 2007, all of which are incorporated herein by reference.
The present inventors used such methods to quantitate activity in vitro of antimicrobial peptides of the invention against bacterial isolates, including laboratory strains and 50 clinical isolates of A. baumannii, and S. aureus ATCC Accession No. 2992. Briefly, small volumes of broth are dispensed in sterile, plastic microtiter trays, and 100 μl of serially-diluted antimicrobial peptide (0.1-64 μg) and 100 μl test organism (approximately 1×10^5 C.F.U.), are added. Following aerobic incubation overnight at 35±2° C. Control samples lacked peptide (Growth control), or lacked peptide and bacteria (Sterility control). The trays were examined visually and the minimal inhibitory concentration (MIC) of peptide required to inhibit bacterial growth were determined. The minimum bactericidal concentration (MBC) was estimated by sub-culturing the wells for which no bacterial growth was visible to the naked eye, to thereby determine a concentration of antimicrobial that reduces the original inoculum by at least about 99.9%.

MIC (A. baumannii) | SMILES | MBC (A. baumannii) | further results
– | CC[C@H](C)[C@H](NC(=O)[C@H](CCCNC(=N)N)NC(=O)[C@H](CCCNC(=N)N)NC(=O)[C@H](CS)NC(=O)CNC(=O)[C@H](CO)NC(=O)[C@@H](NC(=O)[C@@H](NC(=O)[C@H](CC(=O)O)NC(=O)[C@H](CCCCN)NC(=O)[C@@H](NC(=O)[C@H](CS)NC(=O)[C@@H](NC(=O)[C@@H](N)Cc1ccccc1)C(C)C)C(C)C)[C@@H](C)O)[C@@H](C)CC)C(=O)N[C@H](C(=O)NCC(=O)N[C@@H](Cc1ccccc1)C(=O)N[C@@H](CS)C(=O)N[C@H](C(=O)NCC(=O)N[C@@H](Cc1c[nH]c2ccccc12)C(=O)N[C@@H](CCCNC(=N)N)C(=O)N[C@@H](CC(C)C)C(=O)O)C(C)C)[C@@H](C)O [Ac102] (H-FVCVKDTISGCRRITGFCVGWRL-OH; N-terminus and C-terminus assumed) | – | selectively inhibited growth of Acinetobacter spp. ATCC 19004, and S. aureus [1]: selectively inhibited growth
– | CC[C@H](C)[C@H](NC(=O)[C@H](CO)NC(=O)[C@H](CCCNC(=N)N)NC(=O)[C@@H]1CCCN1C(=O)[C@H](Cc1c[nH]c2ccccc12)NC(=O)[C@H](Cc1c[nH]cn1)NC(=O)[C@H](CC(N)=O)NC(=O)[C@H](Cc1c[nH]c2ccccc12)NC(=O)[C@H](CCCCN)NC(=O)[C@H](CCCCN)NC(=O)CNC(=O)[C@H](CCCCN)NC(=O)[C@H](CCC(N)=O)NC(=O)[C@H](CCCCN)NC(=O)[C@H](CCCCN)NC(=O)[C@H](CO)NC(=O)[C@H](CCCNC(=N)N)NC(=O)[C@H](CC(C)C)NC(=O)[C@H](CC(N)=O)NC(=O)[C@H](C)N)C(=O)N[C@@H](CCCCN)C(=O)N[C@@H](C)C(=O)O [Ac101] (H-ANLRSKKQKGKKWNHWPRSIKA-OH; N-terminus and C-terminus assumed) | – | selectively inhibited growth of Acinetobacter spp. ATCC 19004, and S. aureus [1]: selectively inhibited growth
– | CC[C@H](C)[C@H](NC(=O)[C@H](CCSC)NC(=O)[C@H](Cc1c[nH]c2ccccc12)NC(=O)[C@@H](N)Cc1c[nH]cn1)C(=O)N1CCC[C@H]1C(=O)N[C@@H](CC(C)C)C(=O)N[C@@H](CCCNC(=N)N)C(=O)N[C@@H](CCCCN)C(=O)NCC(=O)N[C@@H](C)C(=O)N[C@@H](CCC(N)=O)C(=O)N[C@@H](Cc1ccc(O)cc1)C(=O)N[C@@H](CCC(=O)O)C(=O)N[C@@H](CCC(=O)O)C(=O)N[C@@H](CC(C)C)C(=O)N[C@@H](CCCNC(=N)N)C(=O)N[C@@H](CCCCN)C(=O)N[C@@H](CC(C)C)C(=O)N[C@@H](CO)C(=O)N[C@@H](CCCCN)C(=O)NCC(=O)N[C@@H](CC(=O)O)C(=O)N[C@@H](Cc1c[nH]cn1)C(=O)O [Ac97] (H-HWMIPLRKGAQYEELRKLSKGDH-OH; N-terminus and C-terminus assumed) | – | selectively inhibited growth of S. aureus [1]: selectively inhibited growth
40 µM (≈ 103 µg/mL) | CC[C@H](C)[C@H](NC(=O)[C@@H]1CCCN1C(=O)[C@@H](NC(=O)[C@@H](NC(=O)[C@H](C)NC(=O)[C@H](CCCNC(=N)N)NC(=O)[C@H](CC(C)C)NC(=O)[C@@H](NC(=O)[C@H](C)NC(=O)[C@H](CCCNC(=N)N)NC(=O)[C@H](CC(C)C)NC(=O)[C@H](CCSC)NC(=O)[C@H](C)NC(=O)[C@@H](NC(=O)[C@@H]1CCCN1C(=O)[C@H](CC(C)C)NC(=O)[C@@H](N)C(C)C)C(C)C)[C@@H](C)O)[C@@H](C)O)C(C)C)C(=O)N[C@@H](CO)C(=O)N[C@@H](CCCNC(=N)N)C(=O)N[C@@H](CO)C(=O)N[C@@H](CCCNC(=N)N)C(=O)N[C@@H](CC(C)C)C(=O)N[C@@H](CCCNC(=N)N)C(=O)O [Ac434] (H-VLPVAMLRATLRATVPISRSRLR-OH; N-terminus and C-terminus assumed) | 40 µM (≈ 103 µg/mL) | –
50 µM (≈ 131 µg/mL) | CC[C@H](C)[C@H](NC(=O)[C@H](C)NC(=O)[C@H](Cc1c[nH]c2ccccc12)NC(=O)[C@H](CCCNC(=N)N)NC(=O)[C@H](CC(C)C)NC(=O)[C@H](CO)NC(=O)CNC(=O)[C@H](C)NC(=O)[C@H](CCCNC(=N)N)NC(=O)[C@H](Cc1c[nH]cn1)NC(=O)[C@H](CC(=O)O)NC(=O)[C@@H](NC(=O)[C@@H]1CCCN1C(=O)[C@H](CCCNC(=N)N)NC(=O)[C@@H]1CCCN1C(=O)[C@@H](N)CCCNC(=N)N)C(C)C)C(=O)N[C@@H](C)C(=O)N[C@@H](Cc1ccccc1)C(=O)N[C@@H](CCC(N)=O)C(=O)N[C@H](C(=O)N[C@@H](CO)C(=O)N[C@@H](CO)C(=O)N[C@@H](CC(C)C)C(=O)O)C(C)C [Ac469] (H-RPRPVDHRAGSLRWAIAFQVSSL-OH; N-terminus and C-terminus assumed) | – | bactericidal or bacteriostatic against A. baumannii (A. baumannii): bacteriostatic; MBC (μM) (A. baumannii; A. baumannii (Table 8), reduces original inoculum by at least about 99.9%): bacteriostat
20 µM (≈ 54.2 µg/mL) | CC[C@H](C)[C@H](NC(=O)[C@H](CCC(N)=O)NC(=O)[C@H](CCCNC(=N)N)NC(=O)[C@H](CS)NC(=O)[C@@H](NC(=O)[C@H](CCCNC(=N)N)NC(=O)[C@H](CCCNC(=N)N)NC(=O)[C@H](CC(C)C)NC(=O)[C@H](CC(=O)O)NC(=O)[C@H](CCC(=O)O)NC(=O)[C@H](CCCNC(=N)N)NC(=O)[C@H](CC(C)C)NC(=O)[C@H](CCCNC(=N)N)NC(=O)CNC(=O)[C@H](CO)NC(=O)[C@H](Cc1ccccc1)NC(=O)[C@@H](NC(=O)[C@H](CC(C)C)NC(=O)[C@@H](NC(=O)CN)C(C)C)[C@@H](C)O)[C@@H](C)CC)C(=O)N[C@@H](CO)C(=O)N[C@@H](C)C(=O)N[C@@H](Cc1ccc(O)cc1)C(=O)O [Ac339] (H-GVLTFSGRLREDLRRICRQISAY-OH; N-terminus and C-terminus assumed) | 40 µM (≈ 108 µg/mL) | MIC (μM) for non-amidated Peptide (A. baumannii): 20 µM
30 µM (≈ 81.4 µg/mL) | CC[C@H](C)[C@H](NC(=O)[C@H](CS)NC(=O)[C@H](CS)NC(=O)[C@H](CCCNC(=N)N)NC(=O)[C@H](CC(=O)O)NC(=O)[C@H](CO)NC(=O)[C@H](CC(C)C)NC(=O)[C@H](CCCNC(=N)N)NC(=O)[C@H](CCCNC(=N)N)NC(=O)[C@H](CC(C)C)NC(=O)[C@H](Cc1ccccc1)NC(=O)CNC(=O)[C@H](CO)NC(=O)[C@@H]1CCCN1C(=O)[C@H](Cc1c[nH]c2ccccc12)NC(=O)[C@@H](NC(=O)[C@@H]1CCCN1)C(C)C)C(=O)N[C@@H](Cc1c[nH]cn1)C(=O)N[C@@H](CO)C(=O)N[C@@H](CCCNC(=N)N)C(=O)N[C@@H](CCC(N)=O)C(=O)N[C@@H](C)C(=O)N[C@@H](CCC(N)=O)C(=O)O [Ac329] (H-PVWPSGFLRRLSDRCCIHSRQAQ-OH; N-terminus and C-terminus assumed) | 39 µM (≈ 106 µg/mL) | –
40 µM (≈ 118 µg/mL) | CC[C@H](C)[C@H](NC(=O)[C@H](CCC(N)=O)NC(=O)[C@H](CCCNC(=N)N)NC(=O)[C@@H](NC(=O)[C@@H](NC(=O)[C@@H]1CCCN1)C(C)C)C(C)C)C(=O)N[C@@H](CC(C)C)C(=O)N[C@@H](CCCNC(=N)N)C(=O)N[C@@H](CO)C(=O)N[C@@H](CCC(=O)O)C(=O)N[C@@H](Cc1c[nH]c2ccccc12)C(=O)N[C@@H](CCCNC(=N)N)C(=O)N[C@@H](CC(N)=O)C(=O)N[C@@H](Cc1c[nH]c2ccccc12)C(=O)N[C@@H](CCCNC(=N)N)C(=O)N[C@@H](CCCCN)C(=O)N[C@@H](CO)C(=O)N[C@@H](CC(C)C)C(=O)N[C@@H](CCC(=O)O)C(=O)N[C@@H](CCSC)C(=O)N[C@@H](CCCNC(=N)N)C(=O)NCC(=O)N[C@@H](CCCNC(=N)N)C(=O)O [Ac437] (H-PVVRQILRSEWRNWRKSLEMRGR-OH; N-terminus and C-terminus assumed) | – | –
– | CC(C)C[C@@H](NC(=O)[C@@H](CCCNC(=N)N)NC(=O)[C@H](N)Cc1ccc(O)cc1)C(=O)N[C@H](CC(C)C)C(=O)N[C@H](CCCNC(=N)N)C(=O)N[C@H](CCCCN)C(=O)N[C@@H](C(=O)N[C@@H](C(=O)N[C@H](Cc1ccccc1)C(=O)N[C@H](CS)C(=O)N[C@H](CC(C)C)C(=O)N[C@H](CCCCN)C(=O)N[C@@H](C(=O)N[C@H](CO)C(=O)N[C@H](CC(C)C)C(=O)N[C@@H](C(=O)N[C@H](CCCCN)C(=O)N1CCC[C@@H]1C(=O)N[C@H](Cc1ccccc1)C(=O)N[C@H](Cc1c[nH]cn1)C(=O)N[C@H](Cc1ccccc1)C(=O)N[C@H](Cc1ccc(O)cc1)C(=O)N1CCC[C@@H]1C(=O)O)[C@H](C)O)[C@H](C)O)[C@H](C)O)[C@H](C)O [Ac5r] (H-[dY][dR][dL][dL][dR][dK][dT][dT][dF][dC][dL][dK][dT][dS][dL][dT][dK][dP][dF][dH][dF][dY][dP]-OH; N-terminus and C-terminus assumed) | – | MIC (μM) for amidated peptide (A. baumannii): 5 µM; MIC (μM) for non-amidated Peptide (A. baumannii): 15 µM
